From PMC12266748, “A Xanthine Derivative With Novel Heat Shock Protein 90‐Alpha Inhibitory and Senolytic Properties” (Aging Cell, 2025)
Entries after “also recorded” stand apart in the source; their conditions may differ.

Legend:
HSP90β = HSP90β (Homo sapiens, UniProt P08238); experiment: Cellular thermal shift assay (CETSA) on cellular lysates, HSP90β; settings: 46°C, compound 0.5 mM
Procedure: (§1) Cellular Thermal Shift Assay (CETSA). […] Briefly, the cellular extract was lysed in RIPA buffer (10 mM Tris-HCl pH 7.4, 250 mM NaCl, 1% NP40/IGEPAL, 1% DOC, 0.01% SDS, 0.01% Glycerol, supplemented with protease/phosphatase inhibitor, PI/PhI mix and 2 mM DTT) and protein concentration was determined by a BCA kit (Pierce, Life Technologies, TFS, Waltham, MA, USA). Samples were homogenized by 3 cycles of freeze-thawing using liquid nitrogen and centrifuged at 13000 rpm at 4 °C for 30 min to separate the soluble fraction from the debris.
(§2) Following the supplier's recommendations, samples were loaded into the proper cartridge (12- 230 kDa Wes/Jess Separation Modules, ProteinSimple, Biotechne, Minneapolis, MN, USA). HSP90α (1:50, MsMAb, Abcam), HSP90β (1:50, RbMAb, Abcam), GRP94 (1:50, RbMAb, Abcam), TRAP1 (1:50, MsMAb, Abcam), α-Tubulin (1:500, MsMAb, Abcam), and β-Actin (1:500, RbMAb, Abcam) were used as primary antibodies. Secondary antibodies were Anti-Mouse Secondary HRP and Anti-Rabbit Secondary HRP (ProteinSimple, Biotechne, Minneapolis, MN, USA).

HSP90α = HSP90α (Homo sapiens, UniProt P07900); experiment: Cellular thermal shift assay (CETSA) on cellular lysates, HSP90α; settings: 46°C, compound 0.5 mM
Procedure: as §1, §2

IMR90 cells = experiment: In vitro screening of the 14 in silico-selected compounds, surviving cell count, proliferating vs senescent IMR90; assay type: cell-based, Homo sapiens; settings: 48 h; for effect on non-senescent IMR90 cells: PD15-PD17, 1 μM; for senolytic activity on senescent IMR90 cells: PD19-PD21, 1 μM
From the text: IMR90 and WI38 lung fibroblasts were purchased from ECACC‐Merck. Human bone marrow (BM)‐derived mesenchymal stromal cells (MSCs) were purchased from Lonza. Human umbilical vein endothelial cells (HUVECs) are primary cells obtained from a pool of donors purchased from Clonetics (Lonza). Murine ear fibroblasts (MearFs) were obtained from C57BL/6J mice maintained in the INRCA “Specific Pathogen Free” (SPF) animal facility. MCF7 breast cancer cells were purchased from ATCC. For dose–response curves, IMR90 and WI38 were induced to senescence through replicative passages; MSCs, HUVECs, and MearFs senescence was induced with Doxorubicin; MCF7 senescence was induced with 4‐Hydroxytamoxifen (Lee et al. [2014]). The EC50 was calculated using GraphPad Prism 10 software. All treatment specifications are reported in the extended section.
Cell culture and treatment. IMR90 cells (Homo sapiens, fetal lung, fibroblast) and WI38 cells (Homo sapiens, fetal lung, fibroblast) were purchased from ECACC-Merck (Merck, Darmstadt, Germany) and cultured in MEM medium (Euroclone, Milano, Italy) supplemented with 1% L-Glutamine (Euroclone, Milano, Italy), 1% Penicillin-Streptomycin (Euroclone, Milano, Italy), and 10% Fetal Bovine Serum (FBS, Euroclone, Milano, Italy), at 37°C, 5% CO2. IMR90 cells with a population doubling (PD) from PD15 to PD23 were used; cells were considered incrementally senescent from passage PD19 to passage PD23. WI38 cells were used from PD26 to PD53. Cells were considered incrementally senescent from passage PD49 to passage PD53. For the compounds in vitro screening, IMR90 cells with passages from PD15 to PD23 were tested at increasing concentrations of 0.5 μM, 1 μM, 10 μM, and 25 μM over 24 and 48 h to evaluate the compounds' efficacy and cytotoxicity compared to the Vehicle (DMSO ≤ 0.1%). Cells were counted manually, in triplicate, using Trypan blue reagent (Euroclone) and disposable Bürker chambers. […] K5 dose-response proliferation curves were performed with compound K5 (Molport, SIA, Riga, Latvia) in concentrations 0.1, 0.5, 1, 5, 10, 50, 100, and 200 μM for 48 h. Cells were counted using a Trypan blue reagent and EVAplus cell counter. The EC50s were calculated by analyzing the data using GraphPad Prism 10 software.

[1] = Phase I stability in human liver microsomes; assay type: in vitro ADME; settings: 1 µM, 0.5 mg/mL microsomes
Procedure: APHAD S.r.l (Buccinasco, MI, Italy) performed all evaluations. Detailed protocols are reported in the extended methods section.
Phase I stability in human and mouse liver microsomes. The metabolic stability of K4 and K5 was evaluated after incubation with mouse and human liver microsomes. Briefly, the 2 compounds were dissolved in DMSO and pre-incubated, at the final concentration of 1µM, for 10 min at 37°C in potassium phosphate buffer 50 mM, pH 7.4, 3 mM MgCl2, with mouse and human liver microsomes (Sigma) at the final concentration of 0.5 mg/mL. After the pre-incubation period, reactions were started by adding the cofactors mixture (NADP, Glc6P, Glc6P-DH in 2% Sodium bicarbonate); samples were taken at time 0, 10, 20, 30, and 60 min, and added to ACN with Verapamil 0.1 µM as Internal Standard (IS) to stop the reaction. After centrifugation, the supernatants were analyzed using LC-MS/MS. A control sample without cofactors was added to check the stability of test compounds in the matrix after 60 min. 7-Ethoxycoumarin (7-EC) and propranolol were added as positive reference standards. Samples were analyzed on Acquity UPLC (Waters) coupled with an API 3200 Triple Quadrupole ABSciex. […] The percent of the area of the test compound remaining at the various incubation times was calculated based on the area of the compound at time 0 min. […]

TRAP1 = molecular target: T1, TRAP1 (Homo sapiens, UniProt Q12931); experiment: Cellular thermal shift assay (CETSA) on cellular lysates, TRAP1; settings: 46°C, compound 0.5 mM
T1 sequence (Q12931 60-704): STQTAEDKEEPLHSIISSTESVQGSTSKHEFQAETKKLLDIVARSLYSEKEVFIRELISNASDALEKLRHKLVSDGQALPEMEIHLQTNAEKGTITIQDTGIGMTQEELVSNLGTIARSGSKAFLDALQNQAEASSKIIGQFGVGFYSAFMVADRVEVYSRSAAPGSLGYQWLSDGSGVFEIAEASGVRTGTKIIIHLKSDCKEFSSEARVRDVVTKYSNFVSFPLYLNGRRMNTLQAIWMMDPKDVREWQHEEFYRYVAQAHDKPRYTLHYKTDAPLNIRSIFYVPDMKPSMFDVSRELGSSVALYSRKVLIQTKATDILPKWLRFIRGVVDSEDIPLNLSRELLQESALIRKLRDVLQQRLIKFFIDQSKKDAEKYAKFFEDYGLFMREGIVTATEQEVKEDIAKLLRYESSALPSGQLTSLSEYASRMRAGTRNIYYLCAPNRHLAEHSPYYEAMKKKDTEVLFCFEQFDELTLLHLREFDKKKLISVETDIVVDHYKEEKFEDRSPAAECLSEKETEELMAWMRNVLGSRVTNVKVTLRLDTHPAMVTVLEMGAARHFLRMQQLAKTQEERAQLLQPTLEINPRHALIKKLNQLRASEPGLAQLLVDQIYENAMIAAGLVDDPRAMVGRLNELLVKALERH
Procedure: as §1, §2

HSP90β, sequence (P08238 whole entry): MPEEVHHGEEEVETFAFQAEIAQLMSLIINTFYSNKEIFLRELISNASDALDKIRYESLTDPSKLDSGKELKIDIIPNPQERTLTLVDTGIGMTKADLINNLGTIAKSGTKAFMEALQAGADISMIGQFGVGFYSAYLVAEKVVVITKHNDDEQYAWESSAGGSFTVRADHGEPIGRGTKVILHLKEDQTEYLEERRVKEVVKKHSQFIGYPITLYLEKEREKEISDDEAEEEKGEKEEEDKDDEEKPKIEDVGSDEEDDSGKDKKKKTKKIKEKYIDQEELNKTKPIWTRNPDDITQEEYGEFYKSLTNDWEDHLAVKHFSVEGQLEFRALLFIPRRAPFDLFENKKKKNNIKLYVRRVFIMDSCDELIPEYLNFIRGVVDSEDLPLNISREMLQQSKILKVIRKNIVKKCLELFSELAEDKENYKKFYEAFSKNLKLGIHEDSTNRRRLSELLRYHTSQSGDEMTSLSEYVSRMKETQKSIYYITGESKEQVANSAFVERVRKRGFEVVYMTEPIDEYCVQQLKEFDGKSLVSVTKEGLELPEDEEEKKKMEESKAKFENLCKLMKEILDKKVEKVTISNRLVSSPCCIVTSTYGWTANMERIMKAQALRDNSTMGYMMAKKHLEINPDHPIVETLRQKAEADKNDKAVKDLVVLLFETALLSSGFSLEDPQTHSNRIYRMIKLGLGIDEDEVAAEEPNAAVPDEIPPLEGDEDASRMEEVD

Compound | stabilization of HSP90β in CETSA (HSP90β) | interaction / stabilization of HSP90α in CETSA (HSP90α) | effect on non-senescent IMR90 cells (IMR90 cells) | senolytic activity on senescent IMR90 cells (IMR90 cells) | metabolic stability in human microsomes [1] | stabilization of TRAP1 in CETSA (TRAP1)
CC(C)(C)S(=O)(=O)C/C(N)=N/OS(=O)(=O)c1ccc(F)cc1F [Compound K4, (Z)-N'-[(2,4-difluorobenzenesulfonyl)oxy]-2-(2-methylpropane-2-sulfonyl)ethanimidamide] | did not observe a stabilization | potent and selective interaction | robust level of safety | evident senolytic activity; also recorded: highest senolytic activity | stable | did not observe a stabilization
Cc1ccccc1-n1c(=O)n(Cc2ccccc2)c(=O)c2[nH]cnc21 [Compound K5, 1-benzyl-3-(2-methylphenyl)-7H-purine-2,6-dione] | did not observe a stabilization | potent and selective interaction | robust level of safety | evident senolytic activity; also recorded: highest senolytic activity | stable | did not observe a stabilization
